Several values for one entry are separate records, joined by “and”; a condition that tells them apart may be missing. Equal values may be shown once. Activity calls are given as the source filed them. The rule behind the calls is not given here.
Test system: rodent lifetime carcinogenesis bioassay, tumor incidence TD50
Test: carcinogenic potency in animals, long-term in vivo studies, CPDB compilation (AID 1745844)
Details: for carcinogen call: lesion: neoplastic nodule, dosed 106 weeks, study length 128 weeks

## CN(N=O)c1ncnc2nc[nH]c12
mouse, strain Swiss CD-1, females, in drinking water, site: liver, lesion: several types, types named in the paper, dosed 104 weeks, study length 104 weeks
  TD50: 63.2 mg/kg/day
mouse, strain Swiss CD-1, females, in drinking water, site: mammary gland, lesion: carcinoma, dosed 104 weeks, study length 104 weeks
  TD50: 28.7 mg/kg/day
mouse, strain Swiss CD-1, females, in drinking water, site: reproductive tract, lesion: several types, types named in the paper, dosed 104 weeks, study length 104 weeks
  TD50: 15.8 mg/kg/day
mouse, strain Swiss CD-1, females, in drinking water, site: uterus, lesion: one or several types, types not named, dosed 104 weeks, study length 104 weeks
  TD50: 84.9 mg/kg/day
mouse, strain Swiss CD-1, males, in drinking water, site: liver, lesion: several types, types named in the paper, dosed 104 weeks, study length 104 weeks
  TD50: 62.6 mg/kg/day
mouse, strain Swiss CD-1, males, in drinking water, site: lung, lesion: one or several types, types not named, dosed 104 weeks, study length 104 weeks
  TD50: 18 mg/kg/day and 21.6 mg/kg/day

## NC(=O)NC1NC(=O)NC1=O (centres undefined)
rat, strain Fischer 344, females, in feed, site: liver
  carcinogen call: negative (inactive)
rat, strain Fischer 344, males, in feed, site: liver
  carcinogen call: negative (inactive)

## CC(=O)N(C(C)=O)c1cccc2c1Cc1ccccc1-2
rat, strain Buffalo, females, in feed, site: ear duct, lesion: squamous-cell carcinoma, dosed 53 weeks, study length 93 weeks
  TD50: 61.2 mg/kg/day
rat, strain Buffalo, females, in feed, site: liver, lesion: hemangioma, dosed 53 weeks, study length 93 weeks
  TD50: 61.2 mg/kg/day
rat, strain Buffalo, females, in feed, site: mammary gland, lesion: adenocarcinoma, dosed 53 weeks, study length 93 weeks
  TD50: 19 mg/kg/day
rat, strain Buffalo, females, in feed, site: pituitary gland, lesion: adenoma, dosed 53 weeks, study length 93 weeks
  TD50: 8.63 mg/kg/day

## CCOc1ccc(NC(=O)CC(C)O)cc1 (centres undefined)
mouse, strain B6C3F1, females, in feed, site: liver, lesion: hepatocellular adenoma, dosed 72 weeks, study length 84 weeks
  TD50: 4000 mg/kg/day
mouse, strain B6C3F1, females, in feed, site: lung, lesion: alveolar-cell tumor, dosed 72 weeks, study length 84 weeks
  TD50: 11300 mg/kg/day
mouse, strain B6C3F1, males, in feed, site: all sites, lesion: lymphoma and leukemia, combined, dosed 70 weeks, study length 84 weeks
  TD50: 2740 mg/kg/day
mouse, strain B6C3F1, males, in feed, site: kidney, lesion: renal-cell adenoma, dosed 70 weeks, study length 84 weeks
  TD50: 5580 mg/kg/day
mouse, strain B6C3F1, males, in feed, site: kidney, lesion: renal-cell carcinoma, dosed 70 weeks, study length 84 weeks
  TD50: 5530 mg/kg/day
mouse, strain B6C3F1, males, in feed, site: liver, lesion: hemangioma, dosed 70 weeks, study length 84 weeks
  TD50: 406000 mg/kg/day
mouse, strain B6C3F1, males, in feed, site: liver, lesion: hepatocellular adenoma, dosed 70 weeks, study length 84 weeks
  TD50: 17500 mg/kg/day
mouse, strain B6C3F1, males, in feed, site: lung, lesion: alveolar-cell tumor, dosed 70 weeks, study length 84 weeks
  TD50: 5280 mg/kg/day
mouse, strain B6C3F1, males, in feed, site: urinary bladder, lesion: papilloma, dosed 70 weeks, study length 84 weeks
  TD50: 46400 mg/kg/day

## CN(C)CCN(C)N=O
hamster, strain Syrian Golden, females, by gavage, site: colon, lesion: several types, types named in the paper, dosed 61 weeks, study length 106 weeks
  TD50: 21 mg/kg/day
hamster, strain Syrian Golden, females, by gavage, site: liver, lesion: hepatocellular tumor, dosed 61 weeks, study length 106 weeks
  TD50: 44 mg/kg/day
hamster, strain Syrian Golden, females, by gavage, site: lung, lesion: alveolar/bronchiolar adenoma, dosed 61 weeks, study length 106 weeks
  TD50: 9.45 mg/kg/day
hamster, strain Syrian Golden, females, by gavage, site: nasal mucosa, lesion: malignant tumor, dosed 61 weeks, study length 106 weeks
  TD50: 9.45 mg/kg/day
hamster, strain Syrian Golden, females, by gavage, site: nasal mucosa, lesion: several types, types named in the paper, dosed 61 weeks, study length 106 weeks
  TD50: 2.76 mg/kg/day
hamster, strain Syrian Golden, males, by gavage, site: colon, lesion: adenocarcinoma, dosed 61 weeks, study length 106 weeks
  TD50: 38.7 mg/kg/day
hamster, strain Syrian Golden, males, by gavage, site: liver, lesion: hepatocellular tumor, dosed 61 weeks, study length 106 weeks
  TD50: 11.7 mg/kg/day
hamster, strain Syrian Golden, males, by gavage, site: nasal mucosa, lesion: malignant tumor, dosed 61 weeks, study length 106 weeks
  TD50: 38.7 mg/kg/day
hamster, strain Syrian Golden, males, by gavage, site: nasal mucosa, lesion: several types, types named in the paper, dosed 61 weeks, study length 106 weeks
  TD50: 6.25 mg/kg/day

## ON=C1CCCC1
rat, strain Fischer 344, males, by gavage, site: liver, lesion: hepatocellular carcinoma, dosed 50 weeks, study length 83 weeks
  TD50: 70.7 mg/kg/day
rat, strain Fischer 344, males, by gavage, site: liver, lesion: several types, types named in the paper, dosed 50 weeks, study length 83 weeks
  TD50: 40.9 mg/kg/day

## CCCCCN(N=O)C(=O)OCC
rat, strain Donryu, females, in drinking water, site: any site (literature study), lesion: several types, types named in the paper, dosed 52 weeks, study length 60 weeks
  TD50: 0.336 mg/kg/day
rat, strain Donryu, females, in drinking water, site: esophagus, lesion: papilloma, dosed 52 weeks, study length 60 weeks
  TD50: 1.46 mg/kg/day
rat, strain Donryu, females, in drinking water, site: esophagus, lesion: squamous-cell carcinoma, dosed 52 weeks, study length 60 weeks
  TD50: 1.01 mg/kg/day
rat, strain Donryu, females, in drinking water, site: forestomach, lesion: papilloma, dosed 52 weeks, study length 60 weeks
  TD50: 1.54 mg/kg/day
rat, strain Donryu, females, in drinking water, site: forestomach, lesion: squamous-cell carcinoma, dosed 52 weeks, study length 60 weeks
  TD50: 2.81 mg/kg/day
rat, strain Donryu, females, in drinking water, site: several sites, sites named in the paper, lesion: papilloma, dosed 52 weeks, study length 60 weeks
  TD50: 1.7 mg/kg/day
rat, strain Donryu, females, in drinking water, site: several sites, sites named in the paper, lesion: squamous-cell carcinoma, dosed 52 weeks, study length 60 weeks
  TD50: 1.09 mg/kg/day

From PubChem BioAssay AID1745844 (Carcinogenic Potency Database (CPDB), 2022)
